# From US20260098030A1, “NEGATIVE ALLOSTERIC MODULATORS OF METABOTROPIC GLUTAMATE RECEPTOR 2” (Vanderbilt University, priority 2022, published 2026)
# pIC50: −log10 of the molar value.
# Biological target: T1, rat mGlu2 (Rattus norvegicus, UniProt P31421)
# T1 construct: expressed in transfected cells; host or cells: HEK-293 cells stably co-expressing GIRK channels
# Assay: mGlu GIRK cell-based thallium flux assay, rat mGlu2
# Conditions: HEK-293 cells co-expressing rat mGlu2 and GIRK, EC80 glutamate
# Method: (§1) Human embryonic kidney (HEK-293) cell lines stably co-expressing human or rat mGlu2 and G protein-coupled inwardly rectifying potassium (GIRK) channels, or human mGlu3 and GIRK, were used for in vitro evaluation of compound activity in thallium flux assay using a fluorescent thallium indicator dye.
# (§2) The day before the assay, GIRK cells co-expressing human mGlu3, human or rat mGlu2, as described above, were plated in black-walled, clear-bottomed, amine-coated 384-well plates at a density of 15,000 cells/20 μL/well in the assay medium (glutamine-depleted basal DMEM supplemented with 10% dialyzed FBS, 20 mM HEPES, 1 mM sodium pyruvate). Cells were incubated at 37° C. in the presence of 5% CO2. The next day, assay buffer (Hanks balanced salt solution, 20 mM HEPES, 4.16 mM sodium bicarbonate, pH 7.2) was prepared to dilute compounds and Thallos AM fluorescent dye solution. The 2× Thallos dye solution (final concentration 0.34 μM to the cells) was prepared by mixing the dye stock (2.97 mM in DMSO) to 1:1 with 10% pluronic acid before adding to the assay buffer. Cells were washed with assay buffer using a microplate washer to remove the medium, resulting in 20 μL of buffer remaining in each well. Immediately, 20 μL of 2× Thallos dye solution was added to cells, and incubated for one hour at 25° C. During the cell dye loading incubation period, a 10-point concentration serial dilution of compound was created from a 10 mM DMSO compound stock by performing a 1:3 serial dilution in DMSO using the Bravo liquid handler. The 2× compound plate was generated by transferring 0.24 μL of the diluted compound in each well to a daughter plate using an Echo acoustic liquid handler. This is further diluted in 40 μL assay buffer, resulting in a range from 30 μM to 1.5 nM final concentration in the assay. The agonist plate (5×) was prepared to include EC80 glutamate concentration (a concentration to elicit 80% of a maximally effective glutamate concentration) in thallium buffer (125 mM […], 1 mM magnesium sulfate, 1.8 mM calcium sulfate, 5 mM glucose, 10 mM HEPES, pH 7.2, 12.5 mM thallium sulfate).
# (§3) After dye-loading, cell plates were washed with assay buffer to remove excess extracellular dye using a microplate washer, resulting in 20 μL of buffer remaining in each well. After a ten-minute equilibration period, cell, compound and agonist plates were loaded into a Hamamatsu μCell kinetic imaging plate reader equipped with liquid handler to monitor fluorescence changes at 480 nm excitation and 540 nm emission settings. Briefly, after collection of baseline fluorescence, 20 μL of compound was added and incubated for two minutes and twenty seconds. This is immediately followed by adding 10 μL of glutamate-thallium buffer to the wells containing compound. The fluorescent signal was monitored an additional 2.5 minutes after the glutamate addition. Multiple reference wells containing no compound received either no glutamate (for a baseline reference), EC80 glutamate, or ECmax glutamate (for normalization to maximum response). Fluorescence was measured throughout the experiment at a frequency of 1 measurement per every 2 seconds before the glutamate addition and a frequency of 1 measurement per every 1 second after the glutamate addition. Each compound concentration series occurred one time in each plate, and replicates from two or three plates were used in each experimental run. Thallium solutions were handled and disposed of according to guidelines from the Vanderbilt University Chemical Safety department.
# (§4) Data were normalized using a static ratio function (F/F0) by dividing every fluorescent measurement by the initial fluorescent value for the corresponding well. The increase in signal resulting from the glutamate/thallium addition of the second add was measured by determining the slope from 3 seconds to 13 seconds after the addition. […]
# T1 sequence (P31421 19-872): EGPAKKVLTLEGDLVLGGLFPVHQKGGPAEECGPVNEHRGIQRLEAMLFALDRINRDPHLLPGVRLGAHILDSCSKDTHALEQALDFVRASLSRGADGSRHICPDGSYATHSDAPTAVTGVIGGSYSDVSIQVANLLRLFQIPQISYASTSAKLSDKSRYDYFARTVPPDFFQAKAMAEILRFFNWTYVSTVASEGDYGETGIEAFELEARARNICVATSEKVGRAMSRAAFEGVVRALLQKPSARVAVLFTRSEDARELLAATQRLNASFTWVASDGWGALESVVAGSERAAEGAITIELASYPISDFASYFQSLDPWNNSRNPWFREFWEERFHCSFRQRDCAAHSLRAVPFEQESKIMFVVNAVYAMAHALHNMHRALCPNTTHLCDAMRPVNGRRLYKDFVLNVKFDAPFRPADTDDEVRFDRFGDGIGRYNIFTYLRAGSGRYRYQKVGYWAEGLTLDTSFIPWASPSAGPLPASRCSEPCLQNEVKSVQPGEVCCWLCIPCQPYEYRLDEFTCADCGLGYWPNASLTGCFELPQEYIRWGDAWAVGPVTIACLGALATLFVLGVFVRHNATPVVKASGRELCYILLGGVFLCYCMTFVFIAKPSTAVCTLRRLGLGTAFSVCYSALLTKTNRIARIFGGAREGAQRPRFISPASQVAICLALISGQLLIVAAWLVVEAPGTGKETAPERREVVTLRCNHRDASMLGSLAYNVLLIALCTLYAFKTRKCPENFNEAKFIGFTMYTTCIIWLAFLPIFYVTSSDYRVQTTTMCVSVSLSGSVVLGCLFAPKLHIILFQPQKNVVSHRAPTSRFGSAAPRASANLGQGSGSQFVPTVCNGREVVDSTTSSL
row,pIC50,Structure (SMILES)
1,5.84,"COc1cc(C#N)cc(-c2cc3c(cc2-c2ccc(F)cc2F)C(=O)NC3)c1 [Compound 95, 3-(6-(2,4-difluorophenyl)-1-oxoisoindolin-5-yl)-5-methoxybenzonitrile]"
2,6.03,"Cc1cc(-c2cc3c(cc2-c2ccc(F)cc2F)C(=O)NC3)c(C)n1C [Compound 97, 6-(2,4-difluorophenyl)-5-(1,2,5-trimethyl-1H-pyrrol-3-yl)isoindolin-1-one]"
3,< 5.00,"N#Cc1cccc(-n2cc(-c3cc4c(cc3-c3ccc(F)cc3F)C(=O)NC4)cn2)c1 [Compound 99, 3-(4-(6-(2,4-difluorophenyl)-1-oxoisoindolin-5-yl)-1H-pyrazol-1-yl)benzonitrile]"
4,5.95,"COc1ncccc1-c1cc2c(cc1-c1ccc(F)cc1F)C(=O)NC2 [Compound 100, 6-(2,4-difluorophenyl)-5-(2-methoxypyridin-3-yl)isoindolin-1-one]"
5,< 5.00,"O=C1NCc2cc(-c3cccnc3N3CCCC3)c(-c3ccc(F)cc3F)cc21 [Compound 102, 6-(2,4-difluorophenyl)-5-(2-(pyrrolidin-1-yl)pyridin-3-yl)isoindolin-1-one]"
6,5.54,"N#Cc1ccc(-c2cc3c(cc2-c2ccc(F)cc2F)C(=O)NC3)c(F)c1 [Compound 103, 4-(6-(2,4-difluorophenyl)-1-oxoisoindolin-5-yl)-3-fluorobenzonitrile]"
7,< 5.00,"N#Cc1cc(-c2cc3c(cc2-c2ccc(F)cc2F)C(=O)NC3)ccn1 [Compound 104, 4-(6-(2,4-difluorophenyl)-1-oxoisoindolin-5-yl)picolinonitrile]"
8,5.35,"COc1cc(F)ccc1-c1cc2c(cc1-c1ccc(F)cc1F)C(=O)NC2 [Compound 105, 6-(2,4-difluorophenyl)-5-(4-fluoro-2-methoxyphenyl)isoindolin-1-one]"
9,5.85,"N#Cc1cc(F)cc(-c2cc3c(cc2-c2ccc(F)cc2F)C(=O)NC3)c1 [Compound 106, 3-(6-(2,4-difluorophenyl)-1-oxoisoindolin-5-yl)-5-fluorobenzonitrile]"
10,6.23,"N#Cc1cccc(-c2cc3c(cc2-c2ccc(F)cc2F)C(=O)NC3)c1 [Compound 107, 3-(6-(2,4-difluorophenyl)-1-oxoisoindolin-5-yl)benzonitrile]"
11,5.95,"Cc1c(C#N)cccc1-c1cc2c(cc1-c1ccc(F)cc1F)C(=O)NC2 [Compound 109, 3-(6-(2,4-difluorophenyl)-1-oxoisoindolin-5-yl)-2-methylbenzonitrile]"
12,< 5.00,"O=C1NCc2cc(-c3cccnc3C(F)(F)F)c(-c3ccc(F)cc3F)cc21 [Compound 110, 6-(2,4-difluorophenyl)-5-(2-(trifluoromethyl)pyridin-3-yl)isoindolin-1-one]"
13,< 5.00,"N#Cc1ccc(-n2cc(-c3cc4c(cc3-c3ccc(F)cc3F)C(=O)NC4)cn2)cc1 [Compound 111, 4-(4-(6-(2,4-difluorophenyl)-1-oxoisoindolin-5-yl)-1H-pyrazol-1-yl)benzonitrile]"
14,< 5.00,"Cc1nnc(-c2ccc(-c3cc4c(cc3-c3ccc(F)cc3F)C(=O)NC4)cc2F)o1 [Compound 112, 6-(2,4-difluorophenyl)-5-(3-fluoro-4-(5-methyl-1,3,4-oxadiazol-2-yl)phenyl)isoindolin-1-one]"
15,< 5.00,"CN1CCN(c2ccc(-c3cc4c(cc3-c3ccc(F)cc3F)C(=O)NC4)cc2)CC1 [Compound 113, 6-(2,4-difluorophenyl)-5-(4-(4-methylpiperazin-1-yl)phenyl)isoindolin-1-one]"
16,< 5.00,"O=C1NCc2cc(-c3c[nH]nc3C(F)(F)F)c(-c3ccc(F)cc3F)cc21 [Compound 114, 6-(2,4-difluorophenyl)-5-(3-(trifluoromethyl)-1H-pyrazol-4-yl)isoindolin-1-one]"

# Biological target: T2, human mGlu2 (Homo sapiens, UniProt Q14416)
# T2 construct: expressed in transfected cells; host or cells: HEK-293 cells stably co-expressing GIRK channels
# Assay: mGlu GIRK cell-based thallium flux assay, human mGlu2
# Conditions: HEK-293 cells co-expressing human mGlu2 and GIRK, EC80 glutamate
# Method: as §1, §2, §3, §4
# T2 sequence (Q14416 19-872): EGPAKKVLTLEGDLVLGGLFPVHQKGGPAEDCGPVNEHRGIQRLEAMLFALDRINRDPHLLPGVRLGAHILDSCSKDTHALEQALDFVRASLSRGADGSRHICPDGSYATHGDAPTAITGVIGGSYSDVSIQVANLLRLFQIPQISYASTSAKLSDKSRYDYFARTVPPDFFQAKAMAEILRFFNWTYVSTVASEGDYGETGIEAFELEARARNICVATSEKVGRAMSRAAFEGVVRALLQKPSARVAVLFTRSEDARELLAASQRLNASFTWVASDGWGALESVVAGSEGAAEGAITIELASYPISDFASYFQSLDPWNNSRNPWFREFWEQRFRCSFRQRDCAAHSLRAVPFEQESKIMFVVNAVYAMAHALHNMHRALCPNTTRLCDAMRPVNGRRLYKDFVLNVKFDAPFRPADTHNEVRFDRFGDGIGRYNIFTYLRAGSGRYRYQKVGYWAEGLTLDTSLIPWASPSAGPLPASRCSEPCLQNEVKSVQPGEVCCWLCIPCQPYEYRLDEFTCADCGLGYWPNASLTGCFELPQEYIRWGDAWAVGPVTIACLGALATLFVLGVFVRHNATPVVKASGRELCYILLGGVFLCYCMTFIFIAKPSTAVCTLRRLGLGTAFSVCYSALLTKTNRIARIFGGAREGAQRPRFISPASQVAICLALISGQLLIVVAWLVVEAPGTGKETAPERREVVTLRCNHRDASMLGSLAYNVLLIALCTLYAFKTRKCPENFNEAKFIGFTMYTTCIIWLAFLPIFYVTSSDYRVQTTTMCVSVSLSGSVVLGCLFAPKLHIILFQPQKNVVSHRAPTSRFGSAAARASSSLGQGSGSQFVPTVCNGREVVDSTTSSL
row,pIC50,Structure (SMILES)
1,< 5.00,"O=C1NCc2cc(-c3cnn(C4COC4)c3)c(-c3ccc(F)cc3)cc21 [Compound 3, 6-(4-fluorophenyl)-5-(1-(oxctan-3-yl)-1H-pyrazol-4-yl)isoindolin-1-one]"
2,6.63,"Cn1ncc(-c2cc3c(cc2-c2ccc(F)cc2F)C(=O)NC3)c1C#N [Compound 115, 4-(6-(2,4-difluorophenyl)-1-oxoisoindolin-5-yl)-1-methyl-1H-pyrazole-5-carbonitrile]"
3,6.03,"CS(=O)(=O)Nc1cccc(-c2cc3c(cc2-c2ccc(F)cc2F)C(=O)NC3)c1 [Compound 116, N-(3-(6-(2,4-difluorophenyl)-1-oxoisoindolin-5-yl)phenyl)methanesulfonamide]"
4,6.13,"CNC(=O)c1cc(Cl)cc(-c2cc3c(cc2-c2ccc(F)cc2F)C(=O)NC3)c1 [Compound 117, 3-chloro-5-(6-(2,4-difluorophenyl)-1-oxoisoindolin-5-yl)-N-methylbenzamide]"
5,5.70,"CC(C)NC(=O)c1cccc(-c2cc3c(cc2-c2ccc(F)cc2F)C(=O)NC3)c1 [Compound 118, 3-(6-(2,4-difluorophenyl)-1-oxoisoindolin-5-yl)-N-isopropylbenzamide]"
6,5.57,"CNS(=O)(=O)c1cccc(-c2cc3c(cc2-c2ccc(F)cc2F)C(=O)NC3)c1 [Compound 119, 3-(6-(2,4-difluorophenyl)-1-oxoisoindolin-5-yl)-N-methylbenzenesulfonamide]"
7,5.98,"CC(=O)Nc1ccccc1-c1cc2c(cc1-c1ccc(F)cc1F)C(=O)NC2 [Compound 120, N-(2-(6-(2,4-difluorophenyl)-1-oxoisoindolin-5-yl)phenyl)acetamide]"
8,5.84,"CNC(=O)c1ccc(F)c(-c2cc3c(cc2-c2ccc(F)cc2F)C(=O)NC3)c1 [Compound 121, 3-(6-(2,4-difluorophenyl)-1-oxoisoindolin-5-yl)-4-fluoro-N-methylbenzamide]"
9,5.89,"CS(=O)(=O)c1cccc(-c2cc3c(cc2-c2ccc(F)cc2F)C(=O)NC3)c1 [Compound 122, 6-(2,4-difluorophenyl)-5-(3-(methylsulfonyl)phenyl)isoindolin-1-one]"
10,6.35,"N#Cc1cc(F)ccc1-c1cc2c(cc1-c1ccc(F)cc1F)C(=O)NC2 [Compound 123, 2-(6-(2,4-difluorophenyl)-1-oxoisoindolin-5-yl)-5-fluorobenzonitrile]"
11,6.30,"N#Cc1ccccc1-c1cc2c(cc1-c1ccc(F)cc1F)C(=O)NC2 [Compound 124, 2-(6-(2,4-difluorophenyl)-1-oxoisoindolin-5-yl)benzonitrile]"
12,5.94,"Cn1cc(-c2cc3c(cc2-c2ccc(F)cc2F)C(=O)NC3)cc1C#N [Compound 125, 4-(6-(2,4-difluorophenyl)-1-oxoisoindolin-5-yl)-1-methyl-1H-pyrrole-2-carbonitrile]"
13,< 5.00,"Cc1noc(C)c1-c1cc2c(cc1-c1ccc(F)cc1F)C(=O)NC2 [Compound 126, 6-(2,4-difluorophenyl)-5-(3,5-dimethylisoxazol-4-yl)isoindolin-1-one]"
14,5.10,"CS(=O)(=O)n1cc(-c2cc3c(cc2-c2ccc(F)cc2F)C(=O)NC3)cn1 [Compound 127, 6-(2,4-difluorophenyl)-5-(1-(methylsulfonyl)-1H-pyrazol-4-yl)isoindolin-1-one]"
15,5.47,"CS(=O)(=O)c1ccccc1-c1cc2c(cc1-c1ccc(F)cc1F)C(=O)NC2 [Compound 128, 6-(2,4-difluorophenyl)-5-(2-(methylsulfonyl)phenyl)isoindolin-1-one]"
16,6.12,"CCn1cc(-c2cc3c(cc2-c2ccc(F)cc2F)C(=O)NC3)c(C(F)(F)F)n1 [Compound 129, 6-(2,4-difluorophcnyl)-5-(1-cthyl-3-(trifluoromethyl)-1H-pyrazol-4-yl)isoindolin-1-one]"
17,6.00,"CC(C)Cn1cc(-c2cc3c(cc2-c2ccc(F)cc2F)C(=O)NC3)cn1 [Compound 130, 6-(2,4-difluorophenyl)-5-(1-isobutyl-1H-pyrazol-4-yl)isoindolin-1-one]"
